Assay results: ChEMBL document CHEMBL3046043, “Antihyperglycaemic activity of Sinularia firma and Sinularia erecta in streptozotocin-induced diabetic rats” (Med Chem Res, 2008)

Columns and labels:
Homo sapiens = organism: Homo sapiens; experiment: Inhibition of glycogen phosphorylase (unknown origin) assessed as inorganic phosphate production at 100 uM after 30 min
[1] = target: T1, Glucose-6-phosphatase catalytic subunit 1 (Homo sapiens) (UniProt P35575); experiment: Inhibition of glucose-6-phosphatase (unknown origin) using glucose-6-phosphate as substrate assessed as inorganic phosphate production at 100 uM after 30 min
T1 sequence (whole entry): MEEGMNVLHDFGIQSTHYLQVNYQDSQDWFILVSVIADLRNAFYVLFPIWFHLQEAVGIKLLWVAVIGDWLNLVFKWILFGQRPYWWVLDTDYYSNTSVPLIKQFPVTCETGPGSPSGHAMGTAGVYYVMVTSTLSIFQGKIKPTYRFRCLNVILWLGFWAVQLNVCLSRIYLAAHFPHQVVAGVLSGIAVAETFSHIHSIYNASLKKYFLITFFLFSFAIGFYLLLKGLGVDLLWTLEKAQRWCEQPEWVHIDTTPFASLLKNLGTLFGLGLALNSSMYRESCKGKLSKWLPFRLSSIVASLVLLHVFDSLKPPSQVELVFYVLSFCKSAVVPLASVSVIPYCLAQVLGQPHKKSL

[2] = target: T2, Tyrosine-protein phosphatase non-receptor type 1 (Homo sapiens) (UniProt P18031); experiment: Inhibition of PTP1B (unknown origin) using p-nitrophenyl phosphate as substrate assessed as p-nitrophenolate ions production at 100 uM after 10 min
T2 sequence (whole entry): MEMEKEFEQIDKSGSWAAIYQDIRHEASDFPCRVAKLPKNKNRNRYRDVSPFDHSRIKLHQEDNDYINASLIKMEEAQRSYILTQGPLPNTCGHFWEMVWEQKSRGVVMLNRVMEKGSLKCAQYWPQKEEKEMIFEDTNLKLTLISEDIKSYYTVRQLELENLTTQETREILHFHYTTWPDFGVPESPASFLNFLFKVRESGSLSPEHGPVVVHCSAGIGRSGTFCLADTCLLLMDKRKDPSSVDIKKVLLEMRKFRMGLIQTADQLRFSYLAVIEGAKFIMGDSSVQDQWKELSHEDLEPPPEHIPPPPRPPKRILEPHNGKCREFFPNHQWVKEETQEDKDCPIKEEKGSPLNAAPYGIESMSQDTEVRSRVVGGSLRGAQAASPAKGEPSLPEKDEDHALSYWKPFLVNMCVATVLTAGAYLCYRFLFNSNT

| inhibition (Homo sapiens) [%] | inhibition [1] [%] | inhibition [2] [%] | SMILES |
| --- | --- | --- | --- |
| 10.2 | 12 | 0.2 | CCCCCCCCCCCCCCCCO[C@H]1OC[C@H](O[C@H]2OC[C@H](O[C@H]3OC[C@H](O)[C@H](O)[C@H]3O)[C@H](O)[C@H]2O)[C@H](O)[C@H]1O |
| 11.3 | 14.6 | 4.1 | CCCCC/C=C/CC/C=C/[C@@H](O)[C@H](CO)NC(=O)CCCCCCCCCCCCCCC |
| 9.5 | 10.2 | 1.3 | CCCCCCCCCCC/C=C/C[C@@H](O)[C@H](CO)NC(=O)[C@H](O)CCCCCCCCCCCCCCCCCC |
| 17.2 | 8.56 | 11.1 | CCCCCCCCCCCCCCCCCCC(=O)OCCCCCCCCCCCCCCCCC |
| 14.2 | 4.25 | 4.1 | CCCCCCCCCCCCCCCCCCOCC(O)CO (centres undefined) |
| 10.2 | 15.9 | 7.6 | C=C(CCCC(C)C)[C@H]1CCC2C3CC=C4C[C@@H](O)CC[C@]4(C)C3CC[C@@]21C (some centres undefined) |
| 18.9 | 12.7 | 1.3 | CCCCCCCCCCCCCCCCCOC(=O)CCCCCCCCCCCCCCCC |
| 8.9 | 8.6 | 5.9 | CCCCCCCCCCCCCCCCCCCCCCO[C@H]1OC[C@H](O[C@H]2OC[C@H](O[C@H]3OC[C@H](O)[C@H](O)[C@H]3O)[C@H](OC(C)=O)[C@H]2O)[C@H](O)[C@H]1O |
